System: influenza A virus (Bethezda) 63 (H2 N2), A (Aichi) (H3 N2)
Assay: Preventive action in mouse influenzal pneumonia
Format: in vivo, mice
Conditions: for The decrease of lethality: P <0.01; for Lethality: absolute animal number: dead/total
Description: Its preventive effect was studied on a mouse influenzal pneumonia induced by infecting the animals intranasally with influenza A virus (Bethezda) 63 (H2 N2), A (Aichi) (H3 N2) and on a generalized mouse herpes, induced by intranasal infection of them with herpes simplex virus from antigen-type I L2 -strain.
A single administration of the preparation per os in the dose of 30 mg/kg 24 hours prior to infection prevents the death of 40% of animals suffering from a generalized herpetic infection.

[1] = 31.2 mg/kg per os 24 and 6 hours before infecting
[2] = 62.5 mg/kg per os 24 and 6 hours before infecting
[3] = 125 mg/kg per os 24 and 6 hours before infecting

## CCOC(=O)c1c(CSc2ccccc2)n(C)c2cc(Br)c(O)c(CN(C)C)c12.Cl.O [preparation of the invention, ethyl 6-bromo-5-hydroxy-4-dimethylaminomethyl-1-methyl-2-phenylthiomethylindole-3-carboxylate hydrochloride monohydrate]
[1]
  Lethality: 30%
  The decrease of lethality: 40%
  Lethality: absolute animal number: 12/40
31.2 mg/kg to 125 mg/kg per os 24 and 6 hours before infecting
  lowering of lethality as compared to control: 40-50%
[2]
  Lethality: 20%
  The decrease of lethality: 50%
  Lethality: absolute animal number: 8/40
[3]
  Lethality: 20%
  The decrease of lethality: 50%
  Lethality: absolute animal number: 8/40
